Experimental data reported in US12679878B2, “CRF2 receptor agonists and their use in therapy” (SANOFI, priority 2020, dated 2026).
Like-named read-outs stand apart in the source and are kept apart here. Starred links: 1 amine or outer side, 2 acyl side, 3 side chain; linkers in the order of their positions; H or OH if unused. Non-standard residues stand in square brackets, D forms with d. Residues, ends and D or L forms follow the SMILES beside them. Groups on a side chain read outwards from the residue. *: point of attachment. C18 diacid = O=C(O)CCCCCCCCCCCCCCCCC(=O)*; γGlu = O=C(O)[C@H](CCC(=O)[*:2])N[*:1]; AEEA = NCCOCCOCC(=O)O; Aib = CC(C)(N)C(=O)O

Columns and labels:
Type in all cases: cell-based
human CRF2α receptor = biological target: T1, human CRF2α receptor (Homo sapiens, UniProt Q13324); test: cAMP agonism at human CRF2 α receptor in TeloHEAC cells (Example 7); details: cAMP HTRF, TeloHEAC cells stably expressing human CRF2 α
T1 construct: expressed in transfected cells; host or cells: TeloHEAC
T1 sequence (Q13324 1-411): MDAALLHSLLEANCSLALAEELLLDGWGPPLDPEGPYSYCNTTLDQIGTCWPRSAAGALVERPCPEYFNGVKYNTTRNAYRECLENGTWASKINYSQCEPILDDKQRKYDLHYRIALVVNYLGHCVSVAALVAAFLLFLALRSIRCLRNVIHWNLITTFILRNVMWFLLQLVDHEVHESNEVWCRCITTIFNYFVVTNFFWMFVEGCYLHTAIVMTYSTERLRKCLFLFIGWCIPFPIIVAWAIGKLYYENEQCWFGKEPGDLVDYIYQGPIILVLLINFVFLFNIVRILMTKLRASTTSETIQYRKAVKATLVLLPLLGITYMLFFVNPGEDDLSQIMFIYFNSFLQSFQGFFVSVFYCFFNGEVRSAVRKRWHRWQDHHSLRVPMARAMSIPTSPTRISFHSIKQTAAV
Method in brief: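 Thawed frozen stably transfected cells in HBSS/20 mM HEPES (0% or 0.1% HSA) plus 2 mM IBMX were exposed to compound at 2000 cells/well for 30 min at room temperature. Intracellular cAMP was read by HTRF (665/620 nm ratio) after 1 h lysis; EC50 was derived with 1000 nM urocortin 2 set as 100%.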

rat CRF2R α receptor = test: cAMP agonism at rat CRF2R α receptor in A7R5 rat aortic smooth muscle cells (Example 8); details: cAMP HTRF, A7R5 rat aortic smooth muscle cell line, 0% HSA
Method in brief: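 Potency (EC50) is the concentration reaching half-maximal activation, with responses scaled so that 1000 nM urocortin 2 equals 100%. Intracellular cAMP was quantified by homogeneous time-resolved fluorescence at 665/620 nm, 1 h after lysis-buffer reagents. Compound stimulation lasted 30 min at room temperature on 2000 IBMX-treated (2 mM) cells per well in HEPES-buffered HBSS.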

CRF1R receptor = biological target: T2, CRF1R receptor (Homo sapiens, UniProt P34998); test: cAMP activity at anti-target CRF1R, CRF1R-overexpression CHO cell line (Example 9); details: CRF1R-overexpression CHO cell line; for EC50: 0% HSA; for Emax: read-out: Emax (%)
T2 construct: host or cells: CHO-K1 clone 2
T2 sequence (P34998 24-415): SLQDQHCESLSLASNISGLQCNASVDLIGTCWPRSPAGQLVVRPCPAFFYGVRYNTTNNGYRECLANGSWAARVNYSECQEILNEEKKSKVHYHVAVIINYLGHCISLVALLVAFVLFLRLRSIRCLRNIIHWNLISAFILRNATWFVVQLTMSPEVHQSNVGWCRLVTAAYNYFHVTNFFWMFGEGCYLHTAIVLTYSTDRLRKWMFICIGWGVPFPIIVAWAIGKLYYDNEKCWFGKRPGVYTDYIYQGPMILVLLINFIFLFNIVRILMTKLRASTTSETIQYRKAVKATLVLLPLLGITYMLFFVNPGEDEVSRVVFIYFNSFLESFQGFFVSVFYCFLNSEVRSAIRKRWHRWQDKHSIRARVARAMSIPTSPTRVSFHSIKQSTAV
Method in brief: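 Using thawed CRF1R-overexpressing CHO cells at 2000 per well, compound is applied for 30 min at RT in HBSS/HEPES buffer with IBMX. Cellular cAMP content is determined via HTRF, and percent activity is calculated against 1000 nM UCN2 defined as 100%.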

[1] = 0% HSA, read-out: EC50 [nM], 0% HSA
[2] = 0.1% HSA, read-out: EC50 [nM], 0.1% HSA

Row | EC50 (human CRF2α receptor; [1]) | EC50 (human CRF2α receptor; [2]) | EC50 (rat CRF2R α receptor) | EC50 (CRF1R receptor) | Emax (CRF1R receptor) | SMILES
1 | 0.23 nM | 16.2 nM | 1.49 nM | > 1000 nM | -0.2% | CC[C@H](C)[C@H](N)C(=O)N[C@H](C(=O)N[C@@H](CC(C)C)C(=O)N[C@@H](CO)C(=O)N[C@@H](CC(C)C)C(=O)N[C@@H](CC(=O)O)C(=O)N[C@H](C(=O)N1CCC[C@H]1C(=O)N[C@H](C(=O)N[C@@H](CCCCN)C(=O)N[C@@H](CC(C)C)C(=O)N[C@@H](CCCCNC(=O)COCCOCCNC(=O)COCCOCCNC(=O)CC[C@H](NC(=O)CCCCCCCCCCCCCCCCC(=O)O)C(=O)O)C(=O)N[C@@H](CCC(N)=O)C(=O)N[C@H](C(=O)N[C@@H](CC(C)C)C(=O)N[C@@H](CC(C)C)C(=O)N[C@@H](CCCCN)C(=O)N[C@@H](CCC(N)=O)C(=O)N[C@@H](CCC(=O)O)C(=O)N[C@@H](CCCNC(=N)N)C(=O)N[C@@H](CCC(N)=O)C(=O)N[C@@H](CCCCN)C(=O)N[C@@H](CCCCN)C(=O)N[C@@H](CCC(N)=O)C(=O)N[C@@H](CCCNC(=N)N)C(=O)N[C@@H](CCC(=O)O)C(=O)N[C@@H](CCCCN)C(=O)N[C@@H](C)C(=O)N[C@@H](CCCCN)C(=O)N[C@H](C(=O)N[C@@H](CC(N)=O)C(=O)N[C@@H](CCCCN)C(=O)N[C@@H](CCC(N)=O)C(=O)N[C@H](C(=O)N[C@@H](CC(C)C)C(=O)N[C@@H](C)C(=O)N[C@@H](CCC(N)=O)C(=O)N[C@H](C(N)=O)C(C)C)[C@@H](C)CC)[C@@H](C)O)[C@@H](C)CC)[C@@H](C)CC)C(C)C)C(C)C [compound 87] (H-IVLSLDVPIKLK([AEEA-AEEA-γGlu-C18 diacid])QILLKQERQKKQREKAKTNKQILAQV-NH2; N-terminus assumed)
2 | 0.51 nM | 20.5 nM | 7.52 nM | > 1000 nM | 5.06% | CC[C@H](C)[C@H](N)C(=O)N[C@H](C(=O)N[C@@H](CC(C)C)C(=O)N[C@@H](CO)C(=O)N[C@@H](CC(C)C)C(=O)N[C@@H](CC(=O)O)C(=O)N[C@H](C(=O)N1CCC[C@H]1C(=O)N[C@H](C(=O)N[C@@H](CCCCN)C(=O)N[C@@H](CC(C)C)C(=O)N[C@@H](CCCCNC(=O)COCCOCCNC(=O)COCCOCCNC(=O)CC[C@H](NC(=O)CCCCCCCCCCCCCCCCC(=O)O)C(=O)O)C(=O)N[C@@H](CCCCN)C(=O)N[C@H](C(=O)N[C@@H](CC(C)C)C(=O)N[C@@H](CC(C)C)C(=O)N[C@@H](CCCCN)C(=O)N[C@@H](CCC(N)=O)C(=O)N[C@@H](CCC(=O)O)C(=O)N[C@@H](CCCNC(=N)N)C(=O)N[C@@H](CCC(N)=O)C(=O)N[C@@H](CCCCN)C(=O)N[C@@H](CCCCN)C(=O)NC(C)(C)C(=O)N[C@@H](CCCNC(=N)N)C(=O)N[C@@H](CCC(=O)O)C(=O)N[C@@H](CCC(N)=O)C(=O)N[C@@H](C)C(=O)N[C@@H](CCC(=O)O)C(=O)N[C@H](C(=O)N[C@@H](CC(N)=O)C(=O)NC(C)(C)C(=O)N[C@@H](CCC(N)=O)C(=O)N[C@H](C(=O)N[C@@H](CC(C)C)C(=O)N[C@@H](C)C(=O)N[C@@H](CCC(N)=O)C(=O)N[C@H](C(N)=O)C(C)C)[C@@H](C)CC)[C@@H](C)O)[C@@H](C)CC)[C@@H](C)CC)C(C)C)C(C)C [compound 100] (H-IVLSLDVPIKLK([AEEA-AEEA-γGlu-C18 diacid])KILLKQERQKK[Aib]REQAETN[Aib]QILAQV-NH2; N-terminus assumed)
